Reference: PMC8802628, “Selective activation of PFKL suppresses the phagocytic oxidative burst” (Cell, 2021)
Several values for one entry are separate records, joined by “and”; a condition that tells them apart may be missing. Equal values may be shown once.

Legend:
[1] = molecular target: T1, PFKL(V545L, V582M) (PFKL−hook) (Homo sapiens, UniProt P17858, V545L/V582M); assay: Recombinant PFKL−hook activity assay; type: biochemical; settings: for EC50: pH 7.5, 3.1 mM ATP, 2.5 mM F6P, mean ± SEM, read-out: EC50, activation of PFKL−hook
T1 construct: made in house; host or cells: Sf9 insect cells (baculovirus)
T1 sequence (P17858 1-780 V545L/V582M): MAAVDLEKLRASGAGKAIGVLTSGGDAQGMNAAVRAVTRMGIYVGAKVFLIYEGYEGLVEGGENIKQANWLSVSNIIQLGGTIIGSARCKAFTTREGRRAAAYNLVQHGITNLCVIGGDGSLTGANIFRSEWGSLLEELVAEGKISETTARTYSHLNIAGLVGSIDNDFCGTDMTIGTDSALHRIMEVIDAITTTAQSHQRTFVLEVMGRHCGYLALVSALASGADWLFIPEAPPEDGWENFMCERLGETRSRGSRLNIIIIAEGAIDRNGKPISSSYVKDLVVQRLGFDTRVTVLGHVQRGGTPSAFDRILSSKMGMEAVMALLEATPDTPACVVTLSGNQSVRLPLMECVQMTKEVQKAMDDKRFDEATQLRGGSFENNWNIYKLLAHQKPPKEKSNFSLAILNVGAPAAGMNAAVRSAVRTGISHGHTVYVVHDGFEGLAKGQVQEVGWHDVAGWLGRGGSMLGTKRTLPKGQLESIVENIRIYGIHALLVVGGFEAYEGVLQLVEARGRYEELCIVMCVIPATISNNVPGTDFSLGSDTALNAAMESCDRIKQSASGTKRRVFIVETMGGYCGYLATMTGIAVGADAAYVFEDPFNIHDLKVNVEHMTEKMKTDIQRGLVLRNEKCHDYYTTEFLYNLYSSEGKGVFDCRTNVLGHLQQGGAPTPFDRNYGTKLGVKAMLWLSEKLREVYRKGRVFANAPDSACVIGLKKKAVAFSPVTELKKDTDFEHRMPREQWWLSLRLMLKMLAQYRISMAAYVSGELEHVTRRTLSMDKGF
Excerpt: Recombinant N-terminal His-tagged human PFKL (NP_002617), PFKM (NP_000280), and PFKP (NM_002627.4) were generated as described ([Webb et al., 2015], [2017]). Point mutants of PFK1 were generated using the QuikChange Lightning kit (Aligent).
His-tagged PFK1 was expressed and purified as described with slight modifications ([Webb et al., 2015], [2017]). Briefly, baculovirus was generated using the Bac-to-Bac Expression system (Invitrogen). PFK1 was expressed in 2-5 × 10^6 sf9 cells at a multiplicity of infection of two for 48 h. Cells were lysed in 20 mM HEPES, pH 7.5, 80 mM potassium phosphate, 1 mM 2-mercapentoethanol, 10% glycerol, 10 mM imidazole, and EDTA-free Protease Inhibitor Cocktail (Abcam) with a Dounce homogenizer. The soluble lysate was incubated with HisPur cobalt resin (ThermoFisher Scientific). The resin was washed with 5 bead volumes lysis buffer, 10 bead volumes lysis buffer containing 2 M NaCl, and 5 further bead volumes lysis buffer. PFK1 was eluted in lysis buffer containing 100 mM imidazole. Fractions containing protein were pooled, passed over a desalting column equilibrated in freezing buffer [20 mM HEPES pH 7.5, 1 mM DTT, 500 μM ammonium sulfate, 5% glycerol, 1 mM ATP, and 100 μM EDTA] and concentrated using an Amicon Ultracel-30K Centrifugal Filter Unit (MilliporeSigma). Protein was quantified using a Bradford Protein Assay kit (ThermoFisher Scientific), and aliquotes frozen in liquid nitrogen for storage at −80°C.
PFK1 activity was determined using the rate of FBP production via an auxiliary enzyme assay adapted to a 96-well format ([Brüser et al., 2012]; [Webb et al., 2015]). The auxiliary enzymes aldolase, triosephosphate isomerase, and glycerol phosphate dehydrogenase were purchased from MilliporeSigma as ammonium sulfate slurries and desalted using an Amicon Ultracel-10K Centrifugal Filter Unit. For assays containing FBP, the rate of ADP production was determined using the auxiliary enzymes pyruvate kinase (PK) and lactate dehydrogenase (LDH) (MilliporeSigma) in a buffer containing 250 μM phosphoenolpyruvic acid, […] NADH, 50 mM HEPES pH 7.5, 100 mM KCl, 1 mM DTT, and effector concentrations as described in the text. The temperature was equilibrated to 25°C for 5 min before initiating the reaction 10 mM MgCl2. Absorbance at 340 nm was measured using a Varioskan LUX Multimode microplate reader (ThermoFisher). Kinetic parameters were generated by nonlinear regression analysis using Prism (GraphPad Software) and are the mean of a minimum of three measurements from two independent preparations of protein. One unit of activity was defined as the amount of enzyme that catalyzed the formation of 1 μmol of fructose 1,6-bisphosphate per min at 25°C. […]

[2] = system: human peripheral blood neutrophils; assay: NETosis assay in human neutrophils (SYTOX Green, DNA area); type: cell-based; settings: for inhibition of PMA-induced NETosis: SAR analogs compared to LDC7559; for fold more potent than LDC7559, inhibition of NETosis: compared to LDC7559
Method: Freshly purified neutrophils were plated at 6 × 10^3 cells/well in glass bottom 96-well plates (SensoPlate, Greiner Bio-One 82050-792) in the RPMI medium described above. Cells were pretreated with DMSO vehicle, 0.5 μM NA-11, 100 μM apocynin, 0.5 μM and 5 μM PALP, or 0.5 μM and 5 μM LDC7559 for 30 min, and then stimulated with 50 nM PMA, 1 μM f-MLP, 5 μg/mL cholesterol crystals, 10 μg/mL LPS, 25 μM nigericin, or 25 μM calcymicin (A23187) for 3 h (except in Figures S1A, 6A and S7C, where cells were stimulated for 4 h). Cells were fixed and permeabilized in 2.5% paraformaldehyde (PFA) and 0.02% Triton X-100 in PBS for 30 min. For quantification of NETosis, cells were stained with 150 nM SYTOX Green and imaged in a KEYENCE Fluorescence Microscope (KEYENCE, ZB-X800E) at 10 x magnification. For immunolabeling, fixed cells were blocked with 2% BSA for 1 h, and then stained with anti-CitH3 and anti-MPO antibodies at a dilution of 1/200 in 1% BSA in PBS. Images were taken at 60 x magnification using an ImageXpress Micro Confocal high-content imaging system (Molecular Devices).
Semi-automated analysis of both phase and fluorescence images of SYTOX Green-stained neutrophils used a specialized MATLAB algorithm. Total cells were counted by scoring phase standard deviation and radial symmetry. NETosis was classified in cells by measuring the DNA area in the fluorescence image and comparing with a select internal training set for each experiment. Unstimulated cells and PMA-stimulated, […] cells served as negative controls. PMA-stimulated cells served as a positive control. NET-forming cells are presented as a percentage of total cells.

Compound | inhibition of PMA-induced NETosis ([2]; PMA) | fold more potent than LDC7559, inhibition of NETosis [2] | EC50 [1] | also measured
O=C(CO)[C@@H](O)[C@H](O)[C@H](O)COP(=O)(O)O [F6P, fructose 6-phosphate] |  |  |  | Vmax,F6P ([1]; PFKL−hook, pH 7.5, 225 μM ATP): 11.50 ± 0.57 micromoles FBP per minute per milligram PFK1; hF6P (Hill coefficient) ([1]; PFKL−hook, pH 7.5, 225 μM ATP): 2.87 ± 0.50
COc1ccccc1-c1cc2n(n1)Cc1ccc(NC(C)=O)cc1OC2 [LDC7559, reference compound] | inhibited PMA-induced NETosis in a dose-dependent manner |  |  | ability to inhibit NETosis (activity range) ([2]; neutrophils): low-micromolar range; spontaneous NETosis ([2]; no stimulus): did not prevent spontaneous NETosis
CC(=O)Nc1ccc2c(c1)OCc1cc(-c3ccccc3)nn1C2 [NA-5] |  | ~ 10 fold | 18.1 ± 3.19 nM | 
CC(=O)Nc1ccc2c(c1)OCc1cc(-c3ccccc3C#CCCCO)nn1C2 [NA-11] | inhibiting NOX2-dependent NETosis induced by PMA | ~ 1,000 fold and 1,000 fold | 53.3 ± 5.77 nM | NOX2-dependent NETosis induced by fMLP, LPS, and cholesterol crystals ([2]; 0.5 μM, 4 h stimulation): inhibited NOX2-dependent NETosis; IC50 ([2]; human PMNs, PMA, read-out: IC50, inhibition of PMA-induced NETosis): 4 ± 0.5 nM
